Experimental data from patent publication US4283394A, “Cytotoxic nucleoside-corticosteroid phosphodiesters” (priority 1979, dated 1981).

Experiments:
[1] = test system: intracerebrally implanted L-1210; assay: Antitumor activity against intracerebrally (i.c.) implanted L-1210 in mice; format: in vivo; conditions: 50 mg/kg/day × 5 i.p.; for Survivors on day 35: groups of 8 mice; for Percent T/C: values as of 35th day
Method: Effects of the conjugate on i.c. implanted L-1210 in mice were also studied. A mouse (C3 D2 F1 /J, female, avg. wt. 20 g) was anesthesized with diethyl ether, the right parietal scalp was washed with 70 percent ethanol, a 27 G 1/2 needle with a guard placed on the outside of the barrel 1.5 mm from the top of the bevel, was inserted through the skull and 1×10^5 cells in 0.05 ml suspension were inoculated into the mouse. The conjugate in 0.9 percent NaCl (0.5 ml) was administered intraperitoneally once daily. Treatment began 24 h after implantation and continued for 5 consecutive days. Control animals received a 0.5 ml injection of saline. Testing was followed as described in the NCI protocol and evaluated by recording the survival time according to the formula appearing in protocol 11.

[2] = Incubation with fresh baboon plasma; format: in vitro ADME; conditions: 37° C.; for metabolised at 24 h: 0.5 ml fresh baboon plasma, read-out: percent hydrolyzed in plasma; for remaining at 24 h: read-out: remaining conjugate among products
Method: (§1) Enzymatic cleavage of the phosphodiester bond of the conjugates was studied by incubating the conjugates (5 μmol) with various enzymes (1.5-3 mg) in appropriate buffer and with plasma (final volume 0.5 ml). An aliquot (200 μl) of the 24 h incubation mixtures was streaked on Whatman 3 MM paper (23×57 cm) with the authentic markers and the paper was developed in Solvent A. The bands were characterized and analyzed semi-quantitatively by UV estimation of the chromatographs. […] The conjugates also remained 60-85 percent intact during the incubation with baboon plasma at 37° C. for 24 h. From the results of these tests, conjugates of this type appear capable of serving as sustained release froms of the parent steroid and nucleoside components thereof.
The conjugate (5 μmol) was incubated with 0.5 ml of fresh baboon plasma at 37° C. for 24 h. 39 percent of the pred-p-ara-C (I) was hydrolyzed, the products being pred-p-ara-C (44 percent), ara-UMP (7 percent), ara-U (21 percent) and prednisolone (28 percent). Only 15 percent of the prednisone-p-ara-C (II) was hydrolyzed, the products being prednisone-p-ara-C (74 percent), ara-UMP (13 percent) and prednisone (13 percent).

[3] = test system: phosphodiesterase I from Crotalus adamenteus; assay: Enzymatic cleavage of the phosphodiester bond by phosphodiesterase I; format: in vitro ADME; conditions: pH 8.8, 24 h, 37° C.; for hydrolysis by phosphodiesterase I: 5 μmol conjugate, 1.5 mg enzyme
Method: as §1
The conjugate (5 μmol) was incubated with 1 M Tris-HCl, pH 8.8 (0.05 ml) and purified phosphodiesterase I from Crotalus adamenteus (1.5 mg., Sigma Chemical Co.) in 0.45 ml. of H2 O for 24 h at 37° C.

[4] = test system: i.p. implanted L1210 leukemia; assay: Comparison of conjugates and ara-C plus steroid combinations, i.p. implanted L1210 leukemic mice; format: in vivo
Method: Each mouse received 1×10^6 cells intraperitoneally. Doses were administered i.p. once daily to groups of 8 mice (avg. wt. 20 g) for 5 consecutive days beginning 24 hours after tumor implantation. In case of the combination, ara-C and the steroid were given at the same molar concentrations present in the conjugates. Mean survival days were calculated by the equation appearing in the NCI protocol; T/C ratios are reported in percent, i.e (treated/control)×100.

[5] = test system: mouse leukemia L-1210 cells; assay: Antiproliferative activity in vitro, viability of L-1210 cells in culture; format: cell-based; conditions: for antiproliferative activity compared with ara-CMP and ara-C: 72 h; for IC50: Mus musculus, L1210, 72 h, read-out: Concentration (μM) for 50 percent loss of viability at 72 hours (ED50)
Method: The antiproliferative activity of the conjugates, ara-C, ara-CMP and the steroids was determined by measuring their effects against mouse leukemia L-1210 cells in culture. The assay was performed in test tubes without agitation according to the procedure described by Hong et al. in J. Med. Chem. 16: 139 (1973). After 24, 48 and 72 h, viable cell counts were performed on the cultures which had been incubated with compounds in various concentrations and the concentration of each compound required to produce a 50 percent inhibition of growth (ED50) after 72 h was determined by interpolation using the method described by Tritsch et al. in Cancer Biochem. Biophys. 2: 87 (1977).

[6] = test system: crude Crotalus adamenteus venom; format: in vitro ADME; conditions: 2.5 mg crude venom, 24 h, 37° C.
Method: as §1

[7] = test system: i.p. implanted L-1210 leukemia; assay: Antitumor activity against i.p. implanted L-1210 leukemia in mice; format: in vivo; conditions: for response vs control in vivo at 25 mg/kg: read-out: Percent T/C (mean survival days treated/control × 100), 25 mg/kg/day × 5 i.p.; for response vs control in vivo at 50 mg/kg: read-out: Percent T/C (mean survival days treated/control × 100), 50 mg/kg/day × 5 i.p.; for response vs control in vivo at 75 mg/kg: read-out: Percent T/C (mean survival days treated/control × 100), 75 mg/kg/day × 5 i.p.; for response vs control in vivo at 100 mg/kg: read-out: Percent T/C (mean survival days treated/control × 100), 100 mg/kg/day × 5 i.p.; for ascitic fluid at the end of the dosage period (5th day) / day on which mice started to accumulate ascitic fluid: doses between 25 and 75 mg/kg/day
Method: The ascites cell form of L-1210 leukemia, grown in C3 D2 F1 /J female mice (supplied by Jackson Labs) were employed. The assay was performed according to National Cancer Institute (NCI) protocol 1.100 described by R. I. Gerau et al., Cancer Chemother. Rep. (Part 3) 3: (2): 7, 47 (1972) with a slight modification. Intraperitoneal implantation of 1×10^6 cells in 0.5-ml suspension to the control and the treated groups (each group comprised 8 C3 D2 F1 /J female mice, average wt 20 g) was carried out using donor mice (DBA/2Ha, supplied by Roswell Park Memorial Institute) bearing 3 day tumor growths. Compounds were dissolved in 0.9 percent NaCl and a 0.5 ml dose was administered intraperitoneally once daily. Treatment began 24 h after implantation and continued for 5 consecutive days. Control animals received a 0.5 ml injection of saline. Testing was followed as described in the NCI protocol and evaluated by recording the survival time according to the formula appearing in protocol 11.

SMILES | Mean Survival Days [1] | body weight lost by day 11 [1] | Survivors on day 35 [1] | Percent T/C [1] | metabolised at 24 h [2] | product ara-UMP ([2]; baboon plasma, 24 h) | product steroid (prednisolone or prednisone) ([2]; baboon plasma, 24 h) | remaining at 24 h ([2]; baboon plasma) | hydrolysis by phosphodiesterase I [3] | product ara-C [3] | product ara-CMP [3] | product prednisolone or prednisone [3] | antiproliferative activity compared with ara-CMP and ara-C [5] | IC50 [5] | hydrolysis by crude snake venom [6] | product ara-C [6] | product steroid [6] | Mean Survival Days, Treated ([7]; 25 mg/kg/day × 5 i.p.) | Percent T/C (mean survival days treated/control × 100) ([7]; 25 mg/kg/day × 5 i.p.) | Mean Survival Days, Treated ([7]; 50 mg/kg/day × 5 i.p.) | also measured
C[C@]12C=CC(=O)C=C1CC[C@@H]1[C@@H]2C(=O)C[C@@]2(C)[C@H]1CC[C@]2(O)C(=O)CO[P+]([O-])(O)OC[C@H]1O[C@@H](n2ccc(N)nc2=O)[C@@H](O)[C@@H]1O (stereo partly drawn) [Prednisone-p-ara-C (II), 5'-(Prednisone-21-phosphoryl)-1-β-D-arabinofuranosylcytosine] | 16.50 days | about 4 g | 1 | 183.3% | 15% | 13% | 13% | 74% | hydrolyzed completely | 10% | 40% | 50% | less active than both ara-CMP and ara-C | 0.5 µM | hydrolyzed completely | 50% | 50% | 14.63 days | 154% | 18.13 days | Percent T/C ([1]; listed as II): 183%; Survival Days Mean (Treated) ([4]; 75.4 μmole/kg/day × 5): 18.13 days; Weight change on Day 8 (g/mouse) ([4]; 75.4 μmole/kg/day × 5): -0.30 g/mouse; response vs control in vivo at 75.4 µmol/kg ([4]; Mus musculus, L1210, ip, 75.4 μmole/kg/day × 5, read-out: % T/C): 210%; Percent T/C (mean survival days treated/control × 100) ([7]; 50 mg/kg/day × 5 i.p.): 210%; Mean Survival Days, Treated ([7]; 75 mg/kg/day × 5 i.p.): 14.50 days; Mean Survival Days, Treated ([7]; 100 mg/kg/day × 5 i.p.): 10.88 days; Percent T/C (mean survival days treated/control × 100) ([7]; 100 mg/kg/day × 5 i.p.): 124%; Mean Survival Days, Treated ([7]; 200 mg/kg/day × 5 i.p.): 9.13 days; response vs control in vivo at 25 mg/kg ([7]; Mus musculus, L1210, ip): 154%; response vs control in vivo at 50 mg/kg ([7]; Mus musculus, L1210, ip): 210%; response vs control in vivo at 75 mg/kg ([7]; Mus musculus, L1210, ip): 153%; response vs control in vivo at 100 mg/kg ([7]; Mus musculus, L1210, ip): 124%; response vs control in vivo at 200 mg/kg ([7]; Mus musculus, L1210, ip, read-out: Percent T/C (mean survival days treated/control × 100), 200 mg/kg/day × 5 i.p.): 104%; ascitic fluid at the end of the dosage period (5th day) [7]: no ascitic fluid; day on which mice started to accumulate ascitic fluid [7]: 15 days
C[C@]12C=CC(=O)C=C1CC[C@@H]1[C@@H]2[C@@H](O)C[C@@]2(C)[C@H]1CC[C@]2(O)C(=O)CO[P+]([O-])(O)OC[C@H]1O[C@@H](n2ccc(N)nc2=O)[C@@H](O)[C@@H]1O (stereo partly drawn) [Pred-p-ara-C (I), 5'-(Prednisolone-21-phosphoryl)-1-β-D-arabinofuranosylcytosine] | 18.13 days | about 4 g | 1 | 201.4% | 39% | 7% | 28% | 44% | hydrolyzed completely | 10% | 40% | 50% | activity comparable to ara-CMP | 0.05 µM | hydrolyzed completely | 50% | 50% | 14.63 days | 154% | 19.13 days | weight gained over original weight (20 g) by day 20 [1]: about 1 g; Percent T/C ([1]; listed as I): 201%; product ara-U ([2]; baboon plasma, 24 h): 21%; Survival Days Mean (Treated) ([4]; 75.0 μmole/kg/day × 5): 19.13 days; Weight change on Day 8 (g/mouse) ([4]; 75.0 μmole/kg/day × 5 (each, for combinations)): -0.28 g/mouse; T/C ([4]; 114.7 μmol/kg/day): 178%; response vs control in vivo at 75 µmol/kg ([4]; Mus musculus, L1210, ip, 75.0 μmole/kg/day × 5, read-out: % T/C): 201%; Mean Survival Days, Treated ([7]; 40 mg/kg/day × 5 i.p.): 15.25 days; Mean Survival Days, Treated ([7]; 75 mg/kg/day × 5 i.p.): 16.88 days; Mean Survival Days, Treated ([7]; 100 mg/kg/day × 5 i.p.): 11.74 days; response vs control in vivo at 25 mg/kg ([7]; Mus musculus, L1210, ip): 154%; response vs control in vivo at 40 mg/kg ([7]; Mus musculus, L1210, ip, read-out: Percent T/C (mean survival days treated/control × 100), 40 mg/kg/day × 5 i.p.): 174%; response vs control in vivo at 50 mg/kg ([7]; Mus musculus, L1210, ip): 201%; response vs control in vivo at 75 mg/kg ([7]; Mus musculus, L1210, ip): 178%; response vs control in vivo at 100 mg/kg ([7]; Mus musculus, L1210, ip): 136%; ascitic fluid at the end of the dosage period (5th day) [7]: no ascitic fluid; day on which mice started to accumulate ascitic fluid [7]: 15 days
